Literature values in patent US20120277309A1, “METHODS OF CONTROLLING VENOUS IRRITATION ASSOCIATED WITH THE TREATMENT OF A CARDIAC DISORDER” (BAXTER HEALTHCARE S.A., priority 2011, published 2012).
Where a name gives a salt, the structure may show the parent alone.

How the values were obtained:
[1] = packaging insert, Baxter; incidence increases with concentration
beta-adrenergic = conditions: disclosed in WO 88/01614

| SMILES | Venous irritation in patients on infusion [1] | Potency as a beta-adrenergic-blocking agent relative to an equivalent amount of the racemic mixture (beta-adrenergic) |
| --- | --- | --- |
| COC(=O)CCc1ccc(OCC(O)CNC(C)C)cc1 (racemic) [R,S-esmolol hydrochloride, methyl-3-[4-(2-hydroxy-3-isopropylamino)propoxy]phenylpropionate hydrochloride] | A significant number of patients experience venous irritation at the infusion site | – |
| COC(=O)CCc1ccc(OC[C@@H](O)CNC(C)C)cc1.Cl (single isomer, unassigned) [S-isomer of esmolol hydrochloride] | – | about twice |
